The inhibition is the change of the read-out against control, counted positive when it falls.

For data set [1], the system named is CEM cells (human T cell type established cell). The experiment in a line: Inhibition of VLA integrin activation (phorbol ester-induced adhesion of CEM cells to fibronectin). Conditions: CCRF-CEM, concentration 100 μM, PMA-induced adhesion, read-out: Adhesion induction inhibition (%). The data set is classed as cell-based. The protocol:
Inhibition of VLA (Very Late Antigen) Integrin Activation
As the index of the activation by VLA integrin, phorbol ester-induced adhesion of CEM cells (human T cell type established cell) to fibronectin, which is a ligand of VIA integrin, was measured. The inhibitory action on the induced adhesion by the test compound was determined by the following method.
CEM cells were washed with RPMI1640 medium containing 0.5% bovine serum albumin (BSA), 10 mM HEPES, 2 mM L-glutamin, 1 mM sodium pyruvate, 60 μg/ml kanamycin sulfate and 1.5 mg/ml sodium hydrogencarbonate (hereinafter this medium is referred to as culture solution) and suspended in this medium for use in the following experiment. To each well of a 96 well plate coated with human fibronectin were added CEM cells (5×10^4) and the test compound dissolved in the culture solution (final concentration 1-100 μM) to the amount of 100 μl, and the plate was stood at 37° C. for 1 hour. Then, PMA (phorbol 12-myristate 13-acetate, TPA; final concentration 10 ng/ml) and the test compound were added to the amount of 200 μl, and the plate was stood at 37° C. for 30 minutes. Each well was washed twice with the culture solution (200 μL) at 37° C., and the LDH (lactate dehydrogenase) activity of the cells adhered to the plate was determined, whereby the amount of the adhered cell was measured. Based on the results obtained by the above-mentioned method, the inhibitory action of the test compound on the induced adhesion was calculated by the following formula The results are shown in Table 6. Inhibition (%) of adhesion induction=(a−b)/(a−c)×100 • a=number of cells adhered with the addition of PMA • b=number of cells adhered with the addition of test compound and PMA • c=number of cells adhered without stimulation

For data set [2], the system named is hind limb skin blood flow. Description: Peripheral blood flow increasing action in STZ-induced diabetic rats. The data set is classed as in vivo, rat. Conditions: intravenous, 1 μg. Put shortly: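 Male SD rats (200-300 g) made diabetic with STZ 65 mg/kg i.v.; one month later, under pentobarbital anesthesia, compound given i.v. via carotid catheter. Hind limb skin blood flow measured by laser flowmeter, expressed as percent increase over pre-dose flow.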

Data set [3] has as its target T1, Human Platelet Rho Kinase (p160ROCK) (Homo sapiens, UniProt Q13464).
T1 construct: Human platelet p160ROCK was isolated by the method of Ishizaki et al; from tissue; host or cells: human platelets
Description: Rho kinase inhibitory action (inhibition of human platelet Rho kinase (p160ROCK)). The data set is classed as biochemical. The following applies: histone substrate, 1 μM ATP. The procedure:
Rho Kinase Inhibitory Action (Inhibition of Human Platelet Rho Kinase (p160ROCK))
(§1) Kinase assay included the following steps. That is, a reaction mixture (total amount 30 μl) containing 50 mM Hepes-NaOH (pH=7.4), 10 mM MgCl2, 5 mM MnCl2, 2 mM dithiothreitol, 0.02% Brij35, 1 μM [γ-^32P]ATP, 330 μg/ml histone, p160ROCK (2 μl) isolated by the method of Ishizaki et al. and the test compound was incubated at 30° C. for 20 minutes. The solution was mixed with a 1/3 amount of 4× Laemmli sample buffer, boiled for 5 minutes and applied to SDS-PAGE. The gel was stained with Coomassie Brilliant Blue and dried. The band of histone was cut out and assayed for radioactivity.

Another data set deals with T2, ROCKII (Mus musculus, UniProt P70336).
T2 construct: made in house; host or cells: COS cells (transient transfection, immunoprecipitated with 9E10 anti-myc antibody on protein G-Sepharose)
T2 sequence (P70336 whole entry): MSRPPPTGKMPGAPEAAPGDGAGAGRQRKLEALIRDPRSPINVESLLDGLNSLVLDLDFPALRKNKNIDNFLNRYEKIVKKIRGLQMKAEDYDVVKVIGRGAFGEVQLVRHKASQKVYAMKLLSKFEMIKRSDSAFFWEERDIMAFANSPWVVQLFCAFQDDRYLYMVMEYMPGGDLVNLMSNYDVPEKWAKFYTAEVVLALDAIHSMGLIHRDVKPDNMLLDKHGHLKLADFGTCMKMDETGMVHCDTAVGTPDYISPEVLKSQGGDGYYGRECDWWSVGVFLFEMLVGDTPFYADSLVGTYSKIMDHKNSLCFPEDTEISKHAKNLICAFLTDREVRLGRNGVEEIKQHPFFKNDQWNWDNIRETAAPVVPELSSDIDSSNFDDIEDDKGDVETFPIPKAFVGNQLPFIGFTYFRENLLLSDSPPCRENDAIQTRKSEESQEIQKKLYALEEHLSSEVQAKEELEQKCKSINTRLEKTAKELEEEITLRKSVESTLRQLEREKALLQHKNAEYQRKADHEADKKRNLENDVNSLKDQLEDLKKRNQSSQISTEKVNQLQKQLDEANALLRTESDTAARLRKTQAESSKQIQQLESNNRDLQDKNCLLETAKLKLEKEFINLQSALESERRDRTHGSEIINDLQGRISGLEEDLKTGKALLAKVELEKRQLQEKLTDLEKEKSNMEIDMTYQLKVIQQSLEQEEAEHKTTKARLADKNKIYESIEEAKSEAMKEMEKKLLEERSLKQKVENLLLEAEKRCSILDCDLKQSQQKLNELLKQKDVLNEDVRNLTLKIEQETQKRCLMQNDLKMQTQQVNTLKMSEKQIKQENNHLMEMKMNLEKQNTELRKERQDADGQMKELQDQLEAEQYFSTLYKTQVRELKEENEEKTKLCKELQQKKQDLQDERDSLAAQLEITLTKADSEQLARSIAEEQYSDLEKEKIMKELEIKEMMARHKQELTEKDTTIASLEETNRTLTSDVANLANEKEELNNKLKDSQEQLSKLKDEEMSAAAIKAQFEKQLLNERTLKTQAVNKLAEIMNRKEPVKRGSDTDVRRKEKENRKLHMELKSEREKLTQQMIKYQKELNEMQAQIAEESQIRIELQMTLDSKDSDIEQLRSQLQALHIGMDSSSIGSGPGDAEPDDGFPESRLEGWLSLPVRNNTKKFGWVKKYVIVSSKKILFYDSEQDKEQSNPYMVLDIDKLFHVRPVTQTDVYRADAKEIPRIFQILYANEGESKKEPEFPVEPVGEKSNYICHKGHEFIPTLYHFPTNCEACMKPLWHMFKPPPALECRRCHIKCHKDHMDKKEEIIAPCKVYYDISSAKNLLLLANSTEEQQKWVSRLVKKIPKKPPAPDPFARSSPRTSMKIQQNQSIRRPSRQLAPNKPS
Description: Inhibition of ROCKII (myc-tagged, expressed in COS cells). The data set is classed as biochemical. The following applies: enzyme expressed in COS cells; read-out: IC50 (μM) ROCK-II. The procedure:
as §1
(§2) Rho Kinase Inhibitory Action (Inhibition of p160ROCK and ROCKII)
(§3) COS cells were seeded in a 3.5 cm dish and incubated overnight. […] After incubation for 20 hours, the cells were washed once with ice-cooled PBS, and the cells were lysed on ice for 20 minutes using a lysis buffer (20 mM Tris-HCl (pH=7.5), 1 mM EDTA, 1 mM EGTA, 5 mM MgCl2, 25 mM NaF, 10 mM β glycerophosphate, 5 mM sodium pyrophorphate, 0.2 mM phenylmethylsulfonyl fluoride, 2 mM dithiothreitol, 0.2 mM sodium vanadate, 0.05% Triton X-100, 0.1 μM calyculin A). The lysate was centrifuged at 10,000×g for 10 minutes and the supernatant was recovered. […] Then, protein G-Sepharose was added and the mixture was shaken for 2 more hours. […]

The test system of the next data set is ddY mice. The experiment in a line: Acute toxicity in ddY mice. The data set is classed as in vivo. The following applies: intraperitoneal administration at 30 mg/kg, monitored for 5 days. From the text: The compound 109.2HCl and compound 143.2HCl.H2O were respectively administered intraperitoneally to ddY mice and the mice were monitored for 5 days.
The subject of data set [4] is trachea specimen contracted with acetylcholine. Description: Effect on contraction by acetylcholine of trachea specimen removed from guinea pig. Conditions: Cavia porcellus, acetylcholine 10^−6 M contraction, 50% relaxation vs papaverine 10^−4 M maximum, read-out: Trachea relaxing action.
Description: Male Hartley guinea pigs (body weight 260-390 g) were anesthetized by the peritoneal administration of pentobarbital sodium (100 mg/kg) and exsanguinated, whereafter trachea was removed. The anterior cartilage of the trachea was opened and the band was cut in a 3 mm width strip to give a specimen. The specimen was hung in a Magnus bath (40 ml) filled with Krebs-Henseleit solution (NaCl 117 mM; KCl 4.7 mM; CaCl2 2.5 mM; MgSO4 1.2 mM; NaHCO3 24.8 mM; KH2PO4 1.2 mM; glucose 11.0 mM) at a load of 1 g. The Magnus bath was constantly bubbled with a mixed gas (95% O2+5% CO2 gas). The tension of the strip was measured with an isomeric transducer (TB-611T, Nippon Koden) and depicted on a recorder (Ti-102, Tokai Irika).
For another data set, the system named is Human SK-Mel-28 melanoma. The experiment in a line: Inhibition of cell growth of SK-Mel-28 melanoma. The data set is classed as cell-based. Conditions: 72 hours, MTT. The procedure:
Inhibition of Cell Growth of SK-Mel-28 Melanoma
Human SK-Mel-28 melanoma (10^4 cells) and the test compound were suspended in RPMI1640 medium containing 100 μl of 10% FBS and incubated in a 96 well plate at 37° C. under 5% CO2 gas for 72 hours. After the incubation, 10 μl of MTT (5 mg/ml) was added to each well and the cells were incubated at 37° C. under 5% CO2 gas for 4 hours. Then, 10% sodium dodecyl sulfate and 0.01 N hydrochloric acid solution were each added by 10 μl to respective wells. After the plate was stood overnight, absorbance at 570 nm was measured using a microplate reader and the inhibition percentage (% cytotoxicity) was calculated by the following formula.
The cytotoxicity against human cultured tumor cells was confirmed by pigment method (Carmichael et al., Cancer Res., 47, 936-942, 1987: Mosman, J. Immunol. Methods, 65, 55-63, 1983) using 3-(4,5-dimethylthiazol-2-yl)-2,5-diphenyltetrazolium bromide (MTT).
The test compound was dissolved in dimethyl sulfoxide and diluted with RPMI 1640 medium before use. The final dimethyl sulfoxide concentration was adjusted to not more than 0.25%.

Another data set has as its target T3, p160ROCK (Homo sapiens, UniProt Q13464).
T3 construct: made in house; host or cells: COS cells (transient transfection, immunoprecipitated with 9E10 anti-myc antibody on protein G-Sepharose)
The experiment in a line: Inhibition of p160ROCK (myc-tagged, expressed in COS cells). The data set is classed as biochemical. The following applies: enzyme expressed in COS cells. The protocol: as §1, §2, §3

T3 sequence (Q13464 whole entry): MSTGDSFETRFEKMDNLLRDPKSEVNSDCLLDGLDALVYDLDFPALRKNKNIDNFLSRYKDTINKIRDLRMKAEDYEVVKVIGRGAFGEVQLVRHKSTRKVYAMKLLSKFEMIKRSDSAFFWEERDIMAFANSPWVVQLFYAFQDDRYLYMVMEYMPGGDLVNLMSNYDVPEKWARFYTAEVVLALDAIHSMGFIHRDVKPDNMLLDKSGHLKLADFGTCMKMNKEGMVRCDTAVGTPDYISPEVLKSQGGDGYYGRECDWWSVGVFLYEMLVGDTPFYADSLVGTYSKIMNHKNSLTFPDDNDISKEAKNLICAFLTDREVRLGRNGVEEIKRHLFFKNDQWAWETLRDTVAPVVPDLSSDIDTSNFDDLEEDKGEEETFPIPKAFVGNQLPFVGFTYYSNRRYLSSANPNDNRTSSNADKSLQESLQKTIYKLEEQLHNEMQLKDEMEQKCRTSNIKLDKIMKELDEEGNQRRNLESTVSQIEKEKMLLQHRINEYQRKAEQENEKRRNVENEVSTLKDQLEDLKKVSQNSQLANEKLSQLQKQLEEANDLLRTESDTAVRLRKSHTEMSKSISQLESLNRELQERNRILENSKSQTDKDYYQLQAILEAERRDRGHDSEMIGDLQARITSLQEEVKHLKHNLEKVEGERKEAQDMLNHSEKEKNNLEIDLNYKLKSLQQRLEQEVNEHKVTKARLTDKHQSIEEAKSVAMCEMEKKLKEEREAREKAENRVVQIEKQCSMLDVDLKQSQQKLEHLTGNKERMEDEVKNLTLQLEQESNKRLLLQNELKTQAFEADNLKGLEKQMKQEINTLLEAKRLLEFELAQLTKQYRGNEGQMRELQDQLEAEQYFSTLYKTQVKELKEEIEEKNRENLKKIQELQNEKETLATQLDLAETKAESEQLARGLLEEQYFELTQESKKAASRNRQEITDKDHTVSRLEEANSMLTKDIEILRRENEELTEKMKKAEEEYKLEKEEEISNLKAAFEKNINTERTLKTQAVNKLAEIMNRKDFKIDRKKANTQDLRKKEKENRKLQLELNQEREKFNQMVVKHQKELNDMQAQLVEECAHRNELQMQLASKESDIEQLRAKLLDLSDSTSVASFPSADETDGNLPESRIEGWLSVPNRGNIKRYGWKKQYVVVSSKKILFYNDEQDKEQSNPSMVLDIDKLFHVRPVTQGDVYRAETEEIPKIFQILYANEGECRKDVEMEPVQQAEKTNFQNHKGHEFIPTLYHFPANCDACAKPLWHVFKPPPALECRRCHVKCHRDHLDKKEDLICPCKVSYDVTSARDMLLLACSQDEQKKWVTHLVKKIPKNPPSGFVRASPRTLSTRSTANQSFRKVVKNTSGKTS
T1 sequence (Q13464 whole entry): as above

Take `CC(N)[C@H]1CC[C@H](C(=O)Nc2ccncc2)CC1` (single isomer, unassigned; (+)) [Compound 80.2HCl.H2O, (+)-trans-4-(1-aminoethyl)-1-(4-pyridylcarbamoyl)cyclohexane]: the inhibition at 100 µM in data set [1] is 70%. In data set [2], the “Increase in skin blood flow ± standard error (%)” value was determined as 135.0 ± 13.4%.

As for `CC(N)[C@H]1CC[C@H](C(=O)Nc2ccnc3[nH]ccc23)CC1` (single isomer, unassigned; (+)) [Compound 109.2HCl, (+)-trans-N-(1H-pyrrolo[2,3-b]pyridin-4-yl)-4-(1-aminoethyl)cyclohexanecarboxamide], the IC50 in data set [3] was determined as 110 nM; at ROCKII it was 0.048 µM; in data set [4], 43 nM; with Human SK-Mel-28 melanoma it was 58000 nM; at p160ROCK it was 0.095 µM. In addition, the inhibition at 100 µM in data set [1] turned out to be 67%. Further, the “Acute toxicity (death)” value in the data set on ddY mice is “did not cause death”.

The values are drawn from patent US6906061B2, “Pharmaceutical agent containing Rho kinase inhibitor” (Mitsubishi Pharma Corporation, priority 1996, dated 2005).
